Columns and labels:
Zebrafish VDR = target: T1, Zebrafish VDR (Danio rerio, UniProt Q9PTN2); assay: luciferase reporter transactivation assay in HepG2-NTCP cells, GAL4/zfVDR LBD chimera with tk-UAS-Luc; type: cell-based; settings: screening for activators, at least three concentrations of each drug
T1 sequence (Q9PTN2 121-453): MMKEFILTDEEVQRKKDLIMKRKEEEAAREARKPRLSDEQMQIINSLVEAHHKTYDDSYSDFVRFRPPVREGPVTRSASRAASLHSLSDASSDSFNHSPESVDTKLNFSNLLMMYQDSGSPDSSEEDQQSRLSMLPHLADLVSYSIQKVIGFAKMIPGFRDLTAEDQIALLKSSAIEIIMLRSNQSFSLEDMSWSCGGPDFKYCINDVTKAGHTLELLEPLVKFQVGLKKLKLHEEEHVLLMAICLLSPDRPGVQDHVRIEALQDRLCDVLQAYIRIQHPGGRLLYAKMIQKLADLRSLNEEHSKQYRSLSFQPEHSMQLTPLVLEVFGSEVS

Sea lamprey VDR = target: T2, Sea lamprey VDR (Petromyzon marinus, UniProt Q7ZZY9); type: cell-based; settings: screening for activators, at least three concentrations of each drug
T2 sequence (Q7ZZY9 92-406): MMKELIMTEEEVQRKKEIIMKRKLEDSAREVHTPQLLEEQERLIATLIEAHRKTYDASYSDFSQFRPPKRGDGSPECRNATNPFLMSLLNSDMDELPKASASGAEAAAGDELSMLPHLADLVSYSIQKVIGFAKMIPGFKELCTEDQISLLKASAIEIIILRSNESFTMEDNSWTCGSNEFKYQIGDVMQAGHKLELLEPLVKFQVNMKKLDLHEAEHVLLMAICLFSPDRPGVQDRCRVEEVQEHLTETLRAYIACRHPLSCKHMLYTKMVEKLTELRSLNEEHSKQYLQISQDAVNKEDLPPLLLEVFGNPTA

Xenopus laevis VDR = target: T3, Xenopus laevis VDR (Xenopus laevis, UniProt O13124); assay: luciferase reporter transactivation assay in HepG2-NTCP cells, GAL4/xlVDR LBD chimera with tk-UAS-Luc; type: cell-based; settings: screening for activators, at least three concentrations of each drug
T3 sequence (O13124 90-422): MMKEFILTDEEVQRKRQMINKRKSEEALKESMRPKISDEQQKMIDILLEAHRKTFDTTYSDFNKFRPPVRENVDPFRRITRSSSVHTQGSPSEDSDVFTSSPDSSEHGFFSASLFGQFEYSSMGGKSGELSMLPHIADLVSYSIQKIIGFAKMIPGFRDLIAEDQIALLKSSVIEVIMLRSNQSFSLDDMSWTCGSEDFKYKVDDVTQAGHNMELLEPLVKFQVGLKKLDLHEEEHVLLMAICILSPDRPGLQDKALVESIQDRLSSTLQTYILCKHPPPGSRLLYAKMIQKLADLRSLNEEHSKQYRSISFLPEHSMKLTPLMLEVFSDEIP

## CC(=O)[C@H]1CC[C@H]2[C@@H]3CCC4=CC(=O)CC[C@]4(C)[C@H]3CC[C@]12C [Progesterone]
Zebrafish VDR
  Effect on zebrafish VDR: No effect
Sea lamprey VDR
  Effect on sea lamprey VDR: No effect
Xenopus laevis VDR
  Effect on Xenopus laevis VDR: No effect

## COC(=O)[C@H]1[C@H]2C[C@@H]3c4[nH]c5cc(OC)ccc5c4CCN3C[C@H]2C[C@@H](OC(=O)c2cc(OC)c(OC)c(OC)c2)[C@@H]1OC [Reserpine]
Zebrafish VDR
  Effect on zebrafish VDR: No effect
Sea lamprey VDR
  Effect on sea lamprey VDR: No effect
Xenopus laevis VDR
  Effect on Xenopus laevis VDR: No effect

## CC1=C(/C=C/C(C)=C/C=C/C(C)=C/CO)C(C)(C)CCC1 [Retinol]
Zebrafish VDR
  Effect on zebrafish VDR: No effect
Sea lamprey VDR
  Effect on sea lamprey VDR: No effect
Xenopus laevis VDR
  Effect on Xenopus laevis VDR: No effect

## CC(=O)OC/C=C(C)/C=C/C=C(C)/C=C/C1=C(C)CCCC1(C)C [Retinyl acetate]
Zebrafish VDR
  Effect on zebrafish VDR: No effect
Sea lamprey VDR
  Effect on sea lamprey VDR: No effect
Xenopus laevis VDR
  Effect on Xenopus laevis VDR: No effect

## CCOP(=O)(OCC)C(=Cc1cc(C(C)(C)C)c(O)c(C(C)(C)C)c1)P(=O)(OCC)OCC [SR12813]
Zebrafish VDR
  Effect on zebrafish VDR: No effect
Sea lamprey VDR
  Effect on sea lamprey VDR: No effect
Xenopus laevis VDR
  Effect on Xenopus laevis VDR: No effect

## O=S(=O)(c1ccccc1)N(CC(F)(F)F)c1ccc(C(O)(C(F)(F)F)C(F)(F)F)cc1 [T-0901317]
Zebrafish VDR
  Effect on zebrafish VDR: None of these three VDRs were activated
Sea lamprey VDR
  Effect on sea lamprey VDR: None of these three VDRs were activated
Xenopus laevis VDR
  Effect on Xenopus laevis VDR: None of these three VDRs were activated

## Clc1cnc(Oc2ccc(Oc3ncc(Cl)cc3Cl)cc2)c(Cl)c1 [TCPOBOP]
Zebrafish VDR
  Effect on zebrafish VDR: No effect
Sea lamprey VDR
  Effect on sea lamprey VDR: No effect
Xenopus laevis VDR
  Effect on Xenopus laevis VDR: No effect

## C/C(=C\c1ccc(C(=O)O)cc1)c1ccc2c(c1)C(C)(C)CCC2(C)C [TTNPB]
Zebrafish VDR
  Effect on zebrafish VDR: No effect
Sea lamprey VDR
  Effect on sea lamprey VDR: No effect
Xenopus laevis VDR
  Effect on Xenopus laevis VDR: No effect

## C[C@H](CCC(=O)NCCS(=O)(=O)O)[C@H]1CC[C@H]2[C@@H]3[C@H](O)C[C@@H]4C[C@H](O)CC[C@]4(C)[C@H]3CC[C@]12C [Taurochenodeoxycholic acid]
Zebrafish VDR
  Effect on zebrafish VDR: No effect
Sea lamprey VDR
  Effect on sea lamprey VDR: No effect
Xenopus laevis VDR
  Effect on Xenopus laevis VDR: No effect

## C[C@H](CCC(=O)NCCS(=O)(=O)[O-])[C@H]1CC[C@H]2[C@@H]3CC[C@@H]4C[C@H](O)CC[C@]4(C)[C@H]3C[C@H](O)[C@]12C.[Na+] [Taurodeoxycholic acid sodium salt]
Zebrafish VDR
  Effect on zebrafish VDR: No effect
Sea lamprey VDR
  Effect on sea lamprey VDR: No effect
Xenopus laevis VDR
  Effect on Xenopus laevis VDR: No effect

## C[C@H](CCC(=O)NCCS(=O)(=O)[O-])[C@H]1CC[C@H]2[C@@H]3C[C@H](O)[C@@H]4C[C@H](O)CC[C@]4(C)[C@H]3CC[C@]12C.[Na+] [Taurohyodeoxycholic acid]
Zebrafish VDR
  Effect on zebrafish VDR: No effect
Sea lamprey VDR
  Effect on sea lamprey VDR: No effect
Xenopus laevis VDR
  Effect on Xenopus laevis VDR: No effect

## C[C@H](CCC(=O)NCCS(=O)(=O)O)[C@H]1CC[C@H]2[C@@H]3CC[C@@H]4C[C@H](OS(=O)(=O)O)CC[C@]4(C)[C@H]3CC[C@]12C [Taurolithocholic acid 3-sulfate]
Zebrafish VDR
  Effect on zebrafish VDR: No effect
Sea lamprey VDR
  Effect on sea lamprey VDR: No effect
Xenopus laevis VDR
  Effect on Xenopus laevis VDR: No effect

## CCCCCCCCCCCCCCSCC(=O)O [Tetradecylthioacetic acid]
Zebrafish VDR
  Effect on zebrafish VDR: No effect
Sea lamprey VDR
  Effect on sea lamprey VDR: No effect
Xenopus laevis VDR
  Effect on Xenopus laevis VDR: No effect

## C[C@]12CC[C@@H](O)C[C@H]1CC[C@@H]1[C@@H]2[C@@H](O)C[C@@]2(C)[C@H]1CC[C@]2(O)C(=O)CO [Tetrahydrocortisol]
Zebrafish VDR
  Effect on zebrafish VDR: No effect
Sea lamprey VDR
  Effect on sea lamprey VDR: No effect
Xenopus laevis VDR
  Effect on Xenopus laevis VDR: No effect

## C[C@]12CC[C@@H](O)C[C@H]1CC[C@@H]1[C@@H]2C(=O)C[C@@]2(C)[C@H]1CC[C@]2(O)C(=O)CO [Tetrahydrocortisone]
Zebrafish VDR
  Effect on zebrafish VDR: No effect
Sea lamprey VDR
  Effect on sea lamprey VDR: No effect
Xenopus laevis VDR
  Effect on Xenopus laevis VDR: No effect

## Cc1c(C)c2c(c(C)c1O)CCC(C)(COc1ccc(CC3SC(=O)NC3=O)cc1)O2 (centres unmarked) [Troglitazone]
Zebrafish VDR
  Effect on zebrafish VDR: No effect
Sea lamprey VDR
  Effect on sea lamprey VDR: No effect
Xenopus laevis VDR
  Effect on Xenopus laevis VDR: No effect

## CC(C)=CCC/C(C)=C/CC/C(C)=C/CC/C(C)=C/CC1=C(C)C(=O)c2ccccc2C1=O [Vitamin K2]
Zebrafish VDR
  Effect on zebrafish VDR: No effect
Sea lamprey VDR
  Effect on sea lamprey VDR: No effect
Xenopus laevis VDR
  Effect on Xenopus laevis VDR: No effect

## CC1=CC(=O)c2ccccc2C1=O [Vitamin K3]
Zebrafish VDR
  Effect on zebrafish VDR: No effect
Sea lamprey VDR
  Effect on sea lamprey VDR: No effect
Xenopus laevis VDR
  Effect on Xenopus laevis VDR: No effect

## Cc1cccc(Nc2cc(Cl)nc(SCC(=O)O)n2)c1C [WY-14643]
Zebrafish VDR
  Effect on zebrafish VDR: No effect
Sea lamprey VDR
  Effect on sea lamprey VDR: No effect
Xenopus laevis VDR
  Effect on Xenopus laevis VDR: No effect

## C/C=C1\C(=O)C[C@H]2[C@@H]3CCC4=CC(=O)CC[C@]4(C)[C@H]3CC[C@]12C [Z-Guggulsterone]
Zebrafish VDR
  Effect on zebrafish VDR: No effect
Sea lamprey VDR
  Effect on sea lamprey VDR: No effect
Xenopus laevis VDR
  Effect on Xenopus laevis VDR: No effect

## C[C@H](CCC(=O)O)[C@H]1CC[C@H]2[C@@H]3[C@H](O)[C@@H](O)[C@@H]4C[C@H](O)CC[C@]4(C)[C@H]3CC[C@]12C [a-Muricholic acid]
Zebrafish VDR
  Effect on zebrafish VDR: No effect
Sea lamprey VDR
  Effect on sea lamprey VDR: No effect
Xenopus laevis VDR
  Effect on Xenopus laevis VDR: No effect

## C[C@H](CCC(=O)O)[C@H]1CC[C@H]2[C@@H]3[C@@H](O)[C@@H](O)[C@@H]4C[C@H](O)CC[C@]4(C)[C@H]3CC[C@]12C [b-Muricholic acid]
Zebrafish VDR
  Effect on zebrafish VDR: No effect
Sea lamprey VDR
  Effect on sea lamprey VDR: No effect
Xenopus laevis VDR
  Effect on Xenopus laevis VDR: No effect

## NC(=O)N1c2ccccc2C=Cc2ccccc21 [carbamazepine]
Ciona VDR/PXR
  activation of ciVDR/PXR: activated

## COC(=O)/C=C/c1cccc(N(Cc2ccc(-c3ccc(N(C)C)cc3)cc2)C(=O)C2CCCCC2)c1 [fexaramine]
Zebrafish VDR
  Effect on zebrafish VDR: None of these three VDRs were activated
Sea lamprey VDR
  Effect on sea lamprey VDR: None of these three VDRs were activated
Xenopus laevis VDR
  Effect on Xenopus laevis VDR: None of these three VDRs were activated

## CCCCOC(=O)c1ccc(N)cc1 [n-Butyl 4-aminobenzoate]
Zebrafish VDR
  Effect on zebrafish VDR: No effect
Sea lamprey VDR
  Effect on sea lamprey VDR: No effect
Ciona VDR/PXR
  activation of ciVDR/PXR: activated
Xenopus laevis VDR
  Effect on Xenopus laevis VDR: No effect

## CCCOC(=O)c1ccc(O)cc1 [n-Propyl 4-hydroxybenzoate]
Zebrafish VDR
  Effect on zebrafish VDR: No effect
Sea lamprey VDR
  Effect on sea lamprey VDR: No effect
Xenopus laevis VDR
  Effect on Xenopus laevis VDR: No effect

## C[C@H](CCC(=O)O)[C@H]1CC[C@H]2[C@@H]3[C@@H](O)[C@H](O)[C@@H]4C[C@H](O)CC[C@]4(C)[C@H]3CC[C@]12C [w-Muricholic acid]
Zebrafish VDR
  Effect on zebrafish VDR: No effect
Sea lamprey VDR
  Effect on sea lamprey VDR: No effect
Xenopus laevis VDR
  Effect on Xenopus laevis VDR: No effect

## AM-580
Zebrafish VDR
  Effect on zebrafish VDR: No effect
Sea lamprey VDR
  Effect on sea lamprey VDR: No effect
Xenopus laevis VDR
  Effect on Xenopus laevis VDR: No effect

## Hyperforin
Zebrafish VDR
  Effect on zebrafish VDR: No effect
Sea lamprey VDR
  Effect on sea lamprey VDR: No effect
Xenopus laevis VDR
  Effect on Xenopus laevis VDR: No effect

— PMC2263054, “Functional evolution of the vitamin D and pregnane X receptors” (BMC Evolutionary Biology, 2007)
